Data taken from the supplement of paper PMC11061612.

Tests used:
Test in all cases: Bliss excess, mean over the matrix (fraction); higher = more synergy
[1] = system: KARPAS-620 (Plasma Cell Myeloma)
Outline: (§1)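 Cell lines grown in DMEM/F12 or RPMI with 10% FBS were plated in 1536-well plates and held 24 hours at 37°C, 5% CO2 before 72 hours of exposure to two-drug dose matrices, with DMSO typically at 0.2%. CellTiter-Glo 2.0 luminescence gave viability, which was converted to inhibition. Vehicle wells were set to 0 and blank wells to 1. Combination Emax is the second-highest inhibition in the matrix, and Bliss excess is the observed combination effect minus the expected EA + EB − EA·EB, where EA and EB are the single-agent effects.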

[2] = system: JiyoyeP-2003 (Burkitt's Lymphoma)
Outline: as §1

[3] = system: ES7 (Ewing's Sarcoma)
Outline: as §1

[4] = system: NALM-6 (B-Lymphoblastic Leukemia)
Outline: as §1

[5] = system: SUIT-2 (Pancreatic Carcinoma)
Outline: as §1

[6] = system: U-266 (Plasma Cell Myeloma)
Outline: as §1

[7] = system: DB (B-Cell Non-Hodgkin's Lymphoma)
Outline: as §1

[8] = system: MDA-MB-157 (Breast Carcinoma)
Outline: as §1

[9] = system: SK-N-FI (Neuroblastoma)
Outline: as §1

[10] = system: LS-513 (Colorectal Carcinoma)
Outline: as §1

[11] = system: OCI-AML2 (Acute Myeloid Leukemia)
Outline: as §1

[12] = system: DOV13 (Ovarian Carcinoma)
Outline: as §1

[13] = system: CAL-78 (Chondrosarcoma)
Outline: as §1

[14] = system: NCI-H1299 (Non-Small Cell Lung Carcinoma)
Outline: as §1

[15] = system: LU-99A (Non-Small Cell Lung Carcinoma)
Outline: as §1

[16] = system: NCI-H1793 (Lung Adenocarcinoma)
Outline: as §1

[17] = system: DSH1 (Bladder Carcinoma)
Outline: as §1

[18] = system: C3A (Hepatocellular Carcinoma)
Outline: as §1

[19] = system: EM-2 (Chronic Myelogenous Leukemia)
Outline: as §1

[20] = system: HCC2157 (Breast Carcinoma)
Outline: as §1

Structure (SMILES)	Bliss excess [1]	Bliss excess [2]	Bliss excess [3]	Bliss excess [4]	Bliss excess [5]	Bliss excess [6]	Bliss excess [7]	Bliss excess [8]	Bliss excess [9]	Bliss excess [10]	Bliss excess [11]	Bliss excess [12]	Bliss excess [13]	Bliss excess [14]	Bliss excess [15]	Bliss excess [16]	Bliss excess [17]	Bliss excess [18]	Bliss excess [19]	Bliss excess [20]
CN(CCO)CC[C@H](CSc1ccccc1)Nc1ccc(S(=O)(=O)NC(=O)c2ccc(N3CCC([C@@H](O)c4ccccc4-c4ccc(Cl)cc4)CC3)cc2)cc1S(=O)(=O)C(F)(F)F [AZD4320] + C[C@@H]1COCCN1C2=NC(=NC(=C2)C3(CC3)[S@](=N)(=O)C)C4=C5C=CNC5=NC=C4 [AZD6738] (first compound max 1 µM, 7x7, partner max 10 µM)	-0.0028	-0.0334	0.0638	0.0379	-0.098	-0.0133	0.0249	-0.0254	-0.0299	-0.0354	0.0397	-0.0448	0.0071	-0.016	-0.0464	-0.0272	0.0405	-0.016	0.005	0.0014
CN(CCO)CC[C@H](CSc1ccccc1)Nc1ccc(S(=O)(=O)NC(=O)c2ccc(N3CCC([C@@H](O)c4ccccc4-c4ccc(Cl)cc4)CC3)cc2)cc1S(=O)(=O)C(F)(F)F [AZD4320] + C=CCn1c(=O)c2cnc(Nc3ccc(N4CCN(C)CC4)cc3)nc2n1-c1cccc(C(C)(C)O)n1 [AZD1775] (first compound max 1 µM, partner max 1 µM)	-0.0125	0.0154	0.136	0.0725	-0.0088	0.1	0.0616	0.0043	-0.0331	-0.0134	0.0312	0.0352	0.073	-0.0107	0.0007	-0.0061	0.0646	-0.0619	-0.0381	-0.0386
Cc1c2c(nn1C)CSCc1cc(n(C)n1)CSc1cc(c3ccccc3c1)OCCCc1c(C(=O)O)n(C)c3c-2c(Cl)ccc13 [AZD5991] + C[C@@H]1COCCN1C2=NC(=NC(=C2)C3(CC3)[S@](=N)(=O)C)C4=C5C=CNC5=NC=C4 [AZD6738] (first compound max 1 µM, 7x7, partner max 10 µM)	0.0243	0.0159	0.0521	-0.0114	-0.0025	0.0624	0.0042	-0.0076	-0.0554	0.0383	0.0168	0.0005	0.0335	0.0159	-0.0152	0.0097	0.0241	0.0412	0.0299	0.0155
NC1(C(=O)N[C@@H](CCO)c2ccc(Cl)cc2)CCN(c2ncnc3[nH]ccc23)CC1 [Capivasertib] + COc1nnc2ccc(N3CCC(c4ccc(OCCN5CCN(C)C(=O)[C@H]5C)cc4)CC3)nn12 [AZD5153] (first compound max 10 µM, 7x7, partner max 1 µM)	-0.0154	-0.0714	0.104	-0.0517	0.0367	0.0076	-0.0003	0.0204	-0.0019	-0.0246	0.0068	-0.0489	0.0536	0.0174	0	0.0278	-0.0394	0.0515	0.0043	-0.008
CC1(C)CCC(CN2CCN(c3ccc(C(=O)NS(=O)(=O)c4ccc(NCC5CCOCC5)c([N+](=O)[O-])c4)c(Oc4cnc5[nH]ccc5c4)c3)CC2)=C(c2ccc(Cl)cc2)C1 [Venetoclax] + COc1cc(Nc2ncc3c(n2)-c2ccc(Cl)cc2C(c2c(F)cccc2OC)=NC3)ccc1C(=O)O [Alisertib] (first compound max 1 µM, 7x7, partner max 10 µM)	0.284	-0.0161	0.0686	0.104	-0.0515	0.131	0.124	0.014	0.0916	-0.0655	0.0826	0.0303	-0.0353	0.0391	-0.0244	-0.0577	0.128	-0.0617	0.24	0.113
C[C@@H]1COCCN1c1cc(C2([S@](C)(=N)=O)CC2)nc(-c2ccnc3[nH]ccc23)n1 [AZD6738] + O=C(c1cc(Cc2n[nH]c(=O)c3ccccc23)ccc1F)N1CCN(C(=O)C2CC2)CC1 [Olaparib] (first compound max 10 µM, 7x7, partner max 10 µM)	-0.0168	0.0005	0.0469	0.0015	-0.0264	0.0151	-0.0359	-0.0453	-0.0581	0.0419	0.0013	0.0127	0.0285	-0.0365	-0.0289	-0.0153	-0.0205	-0.0039	0.0026	0.0441
CCN(CCO)CCCOc1ccc2c(Nc3cc(CC(=O)Nc4cccc(F)c4)[nH]n3)ncnc2c1 [AZD2811] + C=CCn1c(=O)c2cnc(Nc3ccc(N4CCN(C)CC4)cc3)nc2n1-c1cccc(C(C)(C)O)n1 [AZD1775] (first compound max 1 µM, partner max 1 µM)	-0.0619	0.0548	-0.0468	-0.0515	-0.017	0.0031	0.0251	0.0291	-0.0452	-0.0974	0.0077	-0.0063	0.0636	-0.024	-0.0354	-0.0064	-0.0013	-0.0279	-0.0184	-0.0071
CCc1c2c(nc3ccc(O)cc13)-c1cc3c(c(=O)n1C2)COC(=O)[C@]3(O)CC [SN-38] + O=C(c1cc(Cc2n[nH]c(=O)c3ccccc23)ccc1F)N1CCN(C(=O)C2CC2)CC1 [Olaparib] (first compound max 0.3 µM, 7x7, partner max 10 µM)	-0.0221	0.104	0.112	0.0775	-0.0211	0.0526	0.0534	0.0102	0.0478	0.0731	0.0787	0.0456		0.129	0.0452		0.0007	0.0041	0.0606	
COc1nnc2ccc(N3CCC(c4ccc(OCCN5CCN(C)C(=O)[C@H]5C)cc4)CC3)nn12 [AZD5153] + CN(CC[C@H](CSC1=CC=CC=C1)NC2=C(C=C(C=C2)S(=O)(=O)NC(=O)C3=CC=C(C=C3)N4CCC(CC4)[C@H](C5=CC=CC=C5C6=CC=C(C=C6)Cl)O)S(=O)(=O)C(F)(F)F)CCO [AZD4320] (first compound max 1 µM, 7x7, partner max 1 µM)		-0.0036			0.005								0.132		0.128	0.039		0.0705	-0.0442	0.0047
CN(CCO)CC[C@H](CSc1ccccc1)Nc1ccc(S(=O)(=O)NC(=O)c2ccc(N3CCC([C@@H](O)c4ccccc4-c4ccc(Cl)cc4)CC3)cc2)cc1S(=O)(=O)C(F)(F)F [AZD4320] + Cn1cnc2c(F)c(Nc3ccc(Br)cc3Cl)c(C(=O)NOCCO)cc21 [Selumetinib] (first compound max 1 µM, 7x7, partner max 3 µM)	0.0613	0.0288	0.026	0.0153	0.0126	0.13	-0.0482	0.0259	0.0296		0.0207	-0.114	-0.0388	0.0505	0.0878	0.0496	-0.0405	0.141	0.007	0.0119
C=CCn1c(=O)c2cnc(Nc3ccc(N4CCN(C)CC4)cc3)nc2n1-c1cccc(C(C)(C)O)n1 [AZD1775] + C1CN(CCC1(C(=O)N[C@@H](CCO)C2=CC=C(C=C2)Cl)N)C3=NC=NC4=C3C=CN4 [Capivasertib] (first compound max 3 µM, partner max 3 µM)		-0.0726		-0.0371	-0.017	-0.0704	-0.0264	-0.0818	-0.0442	-0.0514	-0.0405	0.0339	-0.0614	-0.0756	-0.0106	0.0373	0.0495	-0.0262	-0.0724	-0.0183
COc1cc2ncnc(Nc3ccc(F)c(Cl)c3)c2cc1OCCCN1CCOCC1 [Gefitinib] + CC(C)n1c(=O)n(C)c2cnc3cc(F)c(-c4ccc(OCCCN5CCCCC5)nc4)cc3c21 [AZD1390] (first compound max 10 µM, 7x7, partner max 0.3 µM)	-0.0538	-0.0386	-0.0916	-0.0643	-0.0527	-0.0442	0.0332	-0.0453	-0.0391	-0.0362	-0.041	-0.1	-0.0625	-0.0561		-0.0406	-0.0351	-0.11	-0.0507	-0.0136
Cc1c2c(nn1C)CSCc1cc(n(C)n1)CSc1cc(c3ccccc3c1)OCCCc1c(C(=O)O)n(C)c3c-2c(Cl)ccc13 [AZD5991] + Cc1cc2ncnn2cc1Nc1ncc2c(n1)n(C1CCOCC1)c(=O)n2C [AZD7648] (first compound max 1 µM, 7x7, partner max 10 µM)	0.0308	0.0725	-0.028	-0.0303		0.0078	-0.0087	-0.0214	-0.0289	0.002	0.019	-0.0025	-0.0448	-0.0436	-0.0397	-0.0112	-0.095	-0.0312	0.0206	0.0283
CC(=O)c1c(C)c2cnc(Nc3ccc(N4CCNCC4)cn3)nc2n(C2CCCC2)c1=O [Palbociclib] + CN(CC[C@H](CSC1=CC=CC=C1)NC2=C(C=C(C=C2)S(=O)(=O)NC(=O)C3=CC=C(C=C3)N4CCC(CC4)[C@H](C5=CC=CC=C5C6=CC=C(C=C6)Cl)O)S(=O)(=O)C(F)(F)F)CCO [AZD4320] (first compound max 10 µM, 7x7, partner max 1 µM)		-0.0053			-0.0937								-0.0873		-0.119	-0.0299		-0.0358	-0.0899	0.0149
C[C@@H](c1ccc2nccn2c1)n1nnc2ncc(-c3cnn(C)c3)nc21 [Savolitinib] + CN(CC[C@H](CSC1=CC=CC=C1)NC2=C(C=C(C=C2)S(=O)(=O)NC(=O)C3=CC=C(C=C3)N4CCC(CC4)[C@H](C5=CC=CC=C5C6=CC=C(C=C6)Cl)O)S(=O)(=O)C(F)(F)F)CCO [AZD4320] (first compound max 1 µM, 7x7, partner max 1 µM)		-0.0082			0.0046								-0.0906		-0.0558	-0.0329		-0.0604	-0.0531	-0.0331
